In US8637670B2, “Imidazo [4,5-C]quinoline derivatives and their use in the treatment of tumors and/or inflammation” (Piramal Enterprises Limited, priority 2009, dated 2014):

Legend:
HCT116 = assay: Cytotoxicity, propidium iodide assay, HCT116; assay type: cell-based; conditions: Homo sapiens, HCT-116; Colon, HCT116, 48 hours treatment; read-out: IC50, C4a (HCT116)
In short: (§1)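 Read-out: propidium iodide fluorescence after freeze-thaw, viability expressed as percent of untreated wells (100%) and IC50 derived from the plotted percentages. Cells (3000/well) were pre-incubated 18-24 hours, then treated 48 hours with serial compound dilutions in medium.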

PC3 = assay: Cytotoxicity, propidium iodide assay, PC3; assay type: cell-based; conditions: Homo sapiens, PC-3; Prostate, PC3, 48 hours treatment; read-out: IC50, C2a (PC3)
In short: as §1

AsPC 1 = assay: Cytotoxicity, propidium iodide assay, AsPC 1; assay type: cell-based; conditions: Homo sapiens, ASPC1; Pancreatic, AsPC 1, 48 hours treatment; read-out: IC50, C5b (AsPC 1)
Experimental: (§2) The assay was designed as in the reference, Anticancer Drugs, 2002, 13, 1-8, the disclosure of which is incorporated by reference for the teaching of the assay.
(§3) Cells from cell lines as mentioned in the table given below were seeded at a density of 3000 cells/well in a white opaque 96-well plate. Following incubation at 37° C./5% CO2 for a period of 18-24 hours, the cells were treated with various concentrations (stock solution was prepared in DMSO and subsequent dilutions were made in media as per ATCC guidelines) of the compounds of Example 1-40 was for a period of 48 hours. At the end of treatment, the spent culture medium was discarded, the cells were washed with 1×PBS and 200 μl of 7 μg/ml propidium iodide was added to each well. The plates were frozen at −70° C. for at least 24 hours. For analysis, the plates were brought to RT, allowed to thaw and were read in PoleStar fluorimeter with the fluorescence setting. The percentage of viable cells in the non-treated set of wells was considered to be 100 and the percentage viability following treatment was calculated accordingly. IC50 values were calculated from graphs plotted using these percentages. Table 4 depicts the IC50 values of compounds of Example 1-40 in individual cell lines.
(§4) The abbreviations for the Cell Lines as used in Table 4 are: […]

IL-6 = assay: Human monocyte assay, LPS-stimulated IL-6 (ELISA); assay type: cell-based; conditions: human monocytes, 1 μg/ml LPS, 5 hours
In short: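 Adherent human PBMC-derived monocytes (2×10^4/well, cultured 48 h) were pretreated with compound or 0.5% DMSO vehicle for 30 min, then stimulated with 1 μg/ml E. coli 0111:B4 LPS for 5 h at 37 °C. Supernatant IL-6 and TNF-α were measured by ELISA; IC50 by nonlinear regression, with MTS toxicity on a parallel plate.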

U 87 MG = assay: Cytotoxicity, propidium iodide assay, U 87 MG; assay type: cell-based; conditions: Homo sapiens, Glioblastoma, 48 hours treatment, read-out: IC50, C7b (U 87 MG)
Experimental: as §2, §3, §4

T47D = assay: Cytotoxicity, propidium iodide assay, T47D; assay type: cell-based; conditions: Homo sapiens, Breast, 48 hours treatment, read-out: IC50, C6e (T47D)
Experimental: as §2, §3, §4

MDA MB 231 = assay: Cytotoxicity, propidium iodide assay, MDA MB 231; assay type: cell-based; conditions: Homo sapiens; Breast, MDA MB 231, 48 hours treatment; read-out: IC50, C6a (MDA MB 231)
Experimental: as §2, §3, §4

BT 549 = assay: Cytotoxicity, propidium iodide assay, BT 549; assay type: cell-based; conditions: Homo sapiens; Breast, BT 549, 48 hours treatment; read-out: IC50, C6d (BT 549)
Experimental: as §2, §3, §4

[1] = test system: colorectal cancer (cell line HCT116) tumor model; assay: In vivo efficacy, HCT116 xenograft model in SCID mice; conditions: 50 mpk oral, every day for 14 days
Experimental: In-vivo efficacy of the compounds of the present invention was tested in colorectal cancer (cell line HCT116) tumor model Animals were housed and cared for in accordance with the Guidelines in force published by CPCSEA (Committee for the Purpose of Control and Supervision of Experiments on Animals), Tamil Nadu, India. Procedures using laboratory animals were approved by the IAEC (Institutional Animal Ethics Committee) of the Research Center of Piramal Life Sciences Limited, Mumbai, India.
Compound storage: All the compounds including standard were stored at 4-8° C. in an amber colored bottle. The compounds in solutions were also maintained at 4-8° C. in a refrigerator. Sample for animal injection was made fresh everyday.
Dose preparation: Required compound was weighed and mixed with 0.5% (w/v) carboxymethyl cellulose (CMC) and triturated with Tween-20 (secundum artum) with gradual addition of water to make up the final concentration.
Efficacy study in SCID mice: Severely Combined Immune-Deficient (SCID strain-CBySmn.CB17-Prkdc^scid/J, The Jackson Laboratory, Stock #001803) male mice weighing about 20 g of 6-9 weeks old were used in the study.
HCT116 cells were grown in McCoy's 5A medium containing 10% fetal calf serum in 5% CO2 incubator at 37° C. Cells were pelleted by centrifugation at 1000-rpm for 10 minutes. Cells were resuspended in sterile 1×PBS to get a count of 25×10^6 cells per mL, 0.2 mL of this cell suspension (corresponding to 5×10^6 cells) was injected by subcutaneous (s.c.) route in SCID mice. Mice were observed every alternate day for palpable tumor mass. Once the tumor size reached a size of 5-7 mm in diameter, animals were randomized into respective treatment groups. Dose was administered every day for 14 days. Tumor size was recorded on every second day.
Tumor weight (mg) was estimated according to the formula for a prolate ellipsoid: {Length (mm)×[width (mm)^2]×0.5}assuming specific gravity to be one and π to be three.
Tumor growth in compound treated animals was calculated as T/C (Treated/Control)×100% and Growth inhibition Percent (GI %) was [100−T/C %]. […]

TNF-α = assay: Human monocyte assay, LPS-stimulated TNF-α (ELISA); assay type: cell-based; conditions: human monocytes, 1 μg/ml LPS, 5 hours, read-out: TNFα (IC50)
Experimental: The assay was designed as in the reference, Physiol. Res., 2003, 52, 593-598, the disclosure of which is incorporated by reference for the teaching of the assay.
Peripheral blood mononuclear cells (hPBMC) were harvested from human blood and suspended in RPMI 1640 culture medium containing 10% FCS, 100 U/mL penicillin and […] streptomycin (assay medium). Monocytes in the hPBMCs were counted using a Coulter Counter following which the cells were resuspended at 2×10^5 monocytes/mL. A cell suspension containing 2×10^4 monocytes was aliquoted per well of a 96-well plate. Subsequently, the hPBMCs were incubated for 4-5 hours at 37° C. under 5% CO2 (During the incubation, the monocytes adhered to the bottom of 96-well plastic culture plate). Following the incubation, the non-adherent lymphocytes were washed with assay medium and the adherent monocytes re-fed with assay medium. After a 48-hour incubation period (37° C., 5% CO2), monocytes were pretreated with various concentrations of compounds of Example 1-40 (prepared in DMSO) or vehicle (0.5% DMSO) for 30 minutes and stimulated with 1 μg/ml LPS (Escherchia coli 0111:B4, Sigma Chemical Co., St. Louis, Mo.). The incubation was continued for 5 hours at 37° C., 5% CO2. Supernatants were harvested, assayed for IL-6 and TNF-α by ELISA as described by the manufacturer (BD Biosciences, USA). Dexamethasone (10 μM) was used as standard for this assay. The 50% inhibitory concentration (IC50) values were calculated by a nonlinear regression method. In all experiments, a parallel plate was run to ascertain the toxicity of compounds of Example 1-40. The toxicity was determined using the MTS assay as described in Am. J. Physiol. Cell Physiol., 2003, 285, C813-C822.

Row | IC50 (IL-6) [µM] | IC50 (TNF-α) [µM] | SMILES | IC50 (HCT116) [µM] | IC50 (PC3) [µM] | IC50 (AsPC 1) [µM] | IC50 (U 87 MG) [µM] | IC50 (T47D) [µM] | IC50 (MDA MB 231) [µM] | IC50 (BT 549) [µM] | % growth inhibition on 14th day [1] [%]
1 | 1 to 10 | – | Cc1cccc(S(=O)(=O)n2c(=O)n(-c3ccc(C(C)(C)C#N)cc3)c3c4cc(Br)ccc4ncc32)c1 [Example 3, 2-(4-(8-Bromo-2-oxo-3-(m-tolylsulfonyl)-2,3-dihydro-1H-imidazo[4,5-c]quinolin-1-yl)phenyl)-2-methylpropanenitrile] | 1 to 3 | ≤ 1 | 1 to 3 | 1 to 3 | – | – | – | –
2 | ≤ 1 | ≤ 1 | C/C=C/C(=O)n1c(=O)n(-c2ccc(C(C)(C)C#N)cc2)c2c3cc(Br)ccc3ncc21 [Example 27, (E)-2-(4-(8-Bromo-3-but-2-enoyl-2-oxo-2,3-dihydro-1H-imidazo[4,5-c]quinolin-1-yl)phenyl)-2-methylpropanenitrile] | 1 to 3 | ≤ 1 | ≤ 1 | – | ≤ 1 | ≤ 1 | ≤ 1 | 36
3 | ≤ 1 | ≤ 1 | CC(C)(C#N)c1ccc(-n2c(=O)n(C(=O)c3ccccc3)c3cnc4ccc(Br)cc4c32)cc1 [Example 30, 2-(4-(3-Benzoyl-8-bromo-2-oxo-2,3-dihydro-1H-imidazo[4,5-c]quinolin-1-yl)phenyl)-2-methylpropanenitrile] | ≤ 1 | 1 to 3 | 1 to 3 | – | – | – | – | 35
4 | ≤ 1 | ≤ 1 | CC(C)(C#N)c1ccc(-n2c(=O)n(C(=O)c3ccccc3)c3cnc4ccc(Cl)cc4c32)cc1 [Example 37, 2-(4-(3-Benzoyl-8-chloro-2-oxo-2,3-dihydro-1H-imidazo[4,5-c]quinolin-1-yl)phenyl)-2-methylpropanenitrile] | > 3 | 1 to 3 | – | > 3 | – | – | – | –
5 | ≤ 1 | ≤ 1 | C/C=C/C(=O)n1c(=O)n(-c2ccc(C(C)(C)C#N)cc2)c2c3cc(Cl)ccc3ncc21 [Example 38, (E)-2-(4-(3-But-2-enoyl-8-chloro-2-oxo-2,3-dihydro-1H-imidazo[4,5-c]quinolin-1-yl)phenyl)-2-methylpropanenitrile] | > 3 | ≤ 1 | ≤ 1 | – | ≤ 1 | ≤ 1 | ≤ 1 | 17
